Test results published in patent US20100285611A1, “PHOTOBLEACHING RESISTANT PH SENSITIVE DYE NANOREACTORS WITH DUAL WAVELENGTH EMISSION” (priority 2009, published 2010).
Where two headings read alike, the source gives them in different places.

Columns and labels:
[1] = pH dependent fluorescence emission spectra of cSNARF-1 (modified Henderson-Hasselbalch analysis); type: physicochemical
Description: Absorption spectra were obtained using a UV Mini 1240 spectrophotometer (Shimadzu Scientific Instruments, Columbia, Md.) in a 1-cm path length quartz cuvette. The total concentration of encapsulated cSNARF-1 in the suspensions was determined at pH 7 using the extinction coefficient of 27,000 L-mol-1-cm-1 at the absorbance maximum of 548 nm. Fluorescence spectra were obtained using a Cary Eclipse fluorescence spectrophotometer (Varian, Walnut Creek, Calif.) with excitation wavelength of 514 nm and collecting emissions over the range of 550 nm to 750 nm at room temperature. […] The pH was adjusted using 0.1 N HCl or NaOH, starting from pH 7 to either the higher or lower limit of pH and back. All spectra were corrected for dilution.
A more quantitative analyses of these changes in fluorescence intensity may be carried out using the modified Henderson-Hasselbalch equation. For a dye with dual wavelength emissions, the ratio of fluorescence intensity over a given pH range elucidates the dye's pKa as:
where Ri is the fluorescence intensity ratio of the two wavelengths (582 nm and 635 nm) at pHi, Rmin and Rmax are the minimum and maximum limiting values of Ri, respectively. The value of I(A)/I(B) is obtained from the emission intensities at 635 nm for the limiting acidic, I(A), and basic, I(B), pH regions. In practice, to elucidate the pKa of each sample, first the pH1/2 value, at which (Ri−Rmin)=(Rmax−Ri) or R1/2=(½) (Rmax+Rmin) was determined to make the second term of the right hand side of equation equal to zero. The value of pH1/2 was then subtracted by log(I(A)/I(B)) to estimate the pKa value.
To estimate the pH1/2 and I(A)/I(B) from the experiment, the fluorescence intensity changes at 635 nm and 582 nm, and their ratios were plotted against the pH values as shown in FIG. 4B. For elucidation of both pH1/2 and I(A)/I(B), it is important to note that well defined limiting intensities at both extreme ends of acidic and basic pHs must be available. Furthermore, the spectral changes shown in each of FIG. 4A should have a well defined isoemissive point to assure that the integrity of spectral chromophores is maintained throughout the entire pH range. Once pH1/2, Rmin, Rmax, and I(A)/I(B) are determined, the value for “c” may be estimated from the least squares fit of the equation to the experimental results shown as filled circles in FIG. 4B.

[2] = at room temperature; cited from earlier work
[3] = Stopped flow kinetics of fluorescence response to pH change; type: physicochemical
Description: The time dependent response of cSNARF-1 solution and nanoreactors to the pH change was measured at 20° C. using an RX2000 Stopped-Flow Mixing Accessory (Applied Photophysics Limited, Leatherhead, UK) attached to the Cary Eclipse fluorescence spectrophotometer. The mixing time of this system is reported to be 8 msec, and the response time of Eclipse is 1 msec. To estimate the response time of the nanoreactors, they were first adjusted to pH 10 then mixed with a 50 mM phosphate buffer solution at pH 2. By exciting cSNARF-1 at 514 nm during this process, the pH-responsive fluorescence change at 582 nm was recorded.

[4] = Photobleaching under 300 W Xenon lamp; type: physicochemical; details: after 100 minutes; 300 W Xenon lamp 15 cm away; DI water pH 9; 30° C.; 640 nm
Description: cSNARF-1 in DI water at pH 9 and the nanoreactors in the same solvent was placed into covered 1 cm-path length quartz cuvettes and kept at 30° C. using a circulating water bath while being continuously exposed to the emission of a 300 W Xenon lamp placed 15 cm away. […] The fluorescence intensity at 640 nm was recorded at 5 or 10 minute intervals.

[5] = solvent Water, excitation 514 nm

Substance: 5-(and-6)-Carboxy-seminaphthorhodafluor-1 [cSNARF-1]
- Acidic peak ([1]; solvent 1.5% IgG sln): 584 nm
- Basic peak ([1]; solvent 1.5% IgG sln): 633 nm
- c ([1]; solvent 1.5% IgG sln): −0.78
- log{I[A]/I[B]} ([1]; solvent 1.5% IgG sln): −0.47
- pH 1/2 ([1]; solvent 1.5% IgG sln): 7.25
- pKa ([1]; solvent 1.5% IgG sln): 7.72
- pKa ([1]; solvent Water): 7.46
- log{I[A]/I[B]} ([1]; solvent Water, emission intensities at 635 nm, limiting acidic and basic pH): −0.31
- Acidic peak [1, 5]: 581 nm
- Basic peak [1, 5]: 633 nm
- pH 1/2 ([1]; solvent Water, excitation 514 nm, room temperature): 7.15
- c ([1]; solvent Water, least squares fit of Equation 1): −1.17
- pKa [2]: 7.5
- time for change in fluorescence intensity (67%) ([3]; pH change from pH 10 to 5, average of three traces (FIG. 7 legend)): 175 ms
- time for 65% change in fluorescence intensity (t65%) ([3]; response to pH change, average of three traces, 20° C., excitation 514 nm, emission 582 nm): 175 ms
- loss of fluorescence intensity [4]: 30%
